Results: the supplement of paper PMC12076712

Assays:
Experiment in all cases: pIC50, kinobeads binding competition
Conditions in all cases: cell material: Jurkat lysate
UniProt Q9Y2H1 = target: UniProt Q9Y2H1
UniProt O15530 = target: T1, UniProt O15530
T1 sequence (whole entry): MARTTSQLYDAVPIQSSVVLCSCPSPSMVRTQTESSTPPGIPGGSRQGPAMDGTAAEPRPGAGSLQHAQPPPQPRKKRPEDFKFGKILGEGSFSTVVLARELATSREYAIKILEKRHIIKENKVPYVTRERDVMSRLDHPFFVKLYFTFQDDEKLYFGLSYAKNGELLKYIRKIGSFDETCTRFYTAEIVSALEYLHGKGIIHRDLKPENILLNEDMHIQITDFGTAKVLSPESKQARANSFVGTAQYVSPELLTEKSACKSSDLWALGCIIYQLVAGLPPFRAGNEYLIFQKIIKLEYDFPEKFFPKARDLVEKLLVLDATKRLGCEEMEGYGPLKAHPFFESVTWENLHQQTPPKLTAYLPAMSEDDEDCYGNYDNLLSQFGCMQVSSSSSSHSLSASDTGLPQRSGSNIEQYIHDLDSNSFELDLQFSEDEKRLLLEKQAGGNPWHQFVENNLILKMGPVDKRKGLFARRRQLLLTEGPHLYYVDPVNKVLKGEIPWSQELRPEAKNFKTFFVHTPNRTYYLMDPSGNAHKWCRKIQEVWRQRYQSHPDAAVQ

HIPK3 = HIPK3 (UniProt Q9H422)
ILK = target: T2, ILK (UniProt Q13418)
T2 sequence (whole entry): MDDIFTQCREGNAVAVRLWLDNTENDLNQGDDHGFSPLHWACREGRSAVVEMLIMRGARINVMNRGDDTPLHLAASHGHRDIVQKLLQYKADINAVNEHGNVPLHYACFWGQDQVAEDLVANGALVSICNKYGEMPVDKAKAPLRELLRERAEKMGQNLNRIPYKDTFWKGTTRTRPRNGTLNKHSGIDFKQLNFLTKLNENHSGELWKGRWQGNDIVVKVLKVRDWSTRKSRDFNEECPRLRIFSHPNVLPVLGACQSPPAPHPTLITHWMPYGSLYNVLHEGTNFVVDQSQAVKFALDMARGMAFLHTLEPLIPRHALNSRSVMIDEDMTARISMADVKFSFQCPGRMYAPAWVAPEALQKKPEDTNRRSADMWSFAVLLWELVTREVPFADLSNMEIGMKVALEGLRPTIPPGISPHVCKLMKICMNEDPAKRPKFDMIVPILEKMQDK

CAMK4 = target: T3, CAMK4 (UniProt Q16566)
T3 sequence (whole entry): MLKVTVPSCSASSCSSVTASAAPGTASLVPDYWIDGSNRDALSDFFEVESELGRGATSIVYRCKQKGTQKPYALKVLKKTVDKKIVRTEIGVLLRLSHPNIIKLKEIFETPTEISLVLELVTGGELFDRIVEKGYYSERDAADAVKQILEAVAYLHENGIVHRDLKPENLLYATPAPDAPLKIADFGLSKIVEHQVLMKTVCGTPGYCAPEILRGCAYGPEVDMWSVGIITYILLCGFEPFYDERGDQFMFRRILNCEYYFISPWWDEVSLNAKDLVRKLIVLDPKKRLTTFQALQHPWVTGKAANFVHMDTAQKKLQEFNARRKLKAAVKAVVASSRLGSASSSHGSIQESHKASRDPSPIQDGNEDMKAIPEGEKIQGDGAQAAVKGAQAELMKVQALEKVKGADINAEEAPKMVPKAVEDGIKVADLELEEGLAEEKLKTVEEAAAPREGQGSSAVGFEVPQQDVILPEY

UniProt Q14289 = target: UniProt Q14289
MARK2 = MARK2 (UniProt Q7KZI7)
TGFBR1 = target: T4, TGFBR1 (UniProt P36897)
T4 sequence (whole entry): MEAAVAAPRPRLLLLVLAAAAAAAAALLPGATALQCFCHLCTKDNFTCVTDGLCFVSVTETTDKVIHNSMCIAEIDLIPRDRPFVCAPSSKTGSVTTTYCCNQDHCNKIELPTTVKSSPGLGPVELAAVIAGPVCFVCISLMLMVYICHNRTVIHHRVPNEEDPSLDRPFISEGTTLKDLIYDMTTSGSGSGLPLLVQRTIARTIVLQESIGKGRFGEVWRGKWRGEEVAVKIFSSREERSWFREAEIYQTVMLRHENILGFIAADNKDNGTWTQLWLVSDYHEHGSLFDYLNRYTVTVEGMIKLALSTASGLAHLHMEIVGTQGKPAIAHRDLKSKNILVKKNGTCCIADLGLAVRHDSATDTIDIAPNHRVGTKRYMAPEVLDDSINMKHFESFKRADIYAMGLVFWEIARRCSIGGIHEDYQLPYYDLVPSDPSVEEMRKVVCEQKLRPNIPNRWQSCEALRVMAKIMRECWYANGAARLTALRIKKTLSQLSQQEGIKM

UniProt P80192 = target: UniProt P80192
ICK = target: T5, ICK (UniProt Q9UPZ9)
T5 sequence (whole entry): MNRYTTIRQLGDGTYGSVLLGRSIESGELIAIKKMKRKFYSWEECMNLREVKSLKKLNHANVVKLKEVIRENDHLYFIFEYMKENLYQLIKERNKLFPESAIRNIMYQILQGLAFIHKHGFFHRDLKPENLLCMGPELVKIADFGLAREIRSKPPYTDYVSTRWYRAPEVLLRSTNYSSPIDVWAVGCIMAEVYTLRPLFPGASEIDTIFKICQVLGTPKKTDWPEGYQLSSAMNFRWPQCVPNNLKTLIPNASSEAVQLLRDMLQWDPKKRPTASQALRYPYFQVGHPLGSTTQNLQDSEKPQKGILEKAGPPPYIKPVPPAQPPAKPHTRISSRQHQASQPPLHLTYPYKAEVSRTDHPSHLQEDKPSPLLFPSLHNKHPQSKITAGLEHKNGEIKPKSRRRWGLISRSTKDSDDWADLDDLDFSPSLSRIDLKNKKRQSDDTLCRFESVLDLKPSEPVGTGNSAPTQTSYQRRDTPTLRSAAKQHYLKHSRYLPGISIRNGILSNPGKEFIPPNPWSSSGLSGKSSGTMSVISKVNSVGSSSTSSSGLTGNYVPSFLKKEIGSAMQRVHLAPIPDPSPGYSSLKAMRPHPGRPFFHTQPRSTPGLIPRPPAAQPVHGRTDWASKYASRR

UniProt Q13164 = target: UniProt Q13164
Sequence of UniProt Q13164 (Q13164 whole entry, looked up): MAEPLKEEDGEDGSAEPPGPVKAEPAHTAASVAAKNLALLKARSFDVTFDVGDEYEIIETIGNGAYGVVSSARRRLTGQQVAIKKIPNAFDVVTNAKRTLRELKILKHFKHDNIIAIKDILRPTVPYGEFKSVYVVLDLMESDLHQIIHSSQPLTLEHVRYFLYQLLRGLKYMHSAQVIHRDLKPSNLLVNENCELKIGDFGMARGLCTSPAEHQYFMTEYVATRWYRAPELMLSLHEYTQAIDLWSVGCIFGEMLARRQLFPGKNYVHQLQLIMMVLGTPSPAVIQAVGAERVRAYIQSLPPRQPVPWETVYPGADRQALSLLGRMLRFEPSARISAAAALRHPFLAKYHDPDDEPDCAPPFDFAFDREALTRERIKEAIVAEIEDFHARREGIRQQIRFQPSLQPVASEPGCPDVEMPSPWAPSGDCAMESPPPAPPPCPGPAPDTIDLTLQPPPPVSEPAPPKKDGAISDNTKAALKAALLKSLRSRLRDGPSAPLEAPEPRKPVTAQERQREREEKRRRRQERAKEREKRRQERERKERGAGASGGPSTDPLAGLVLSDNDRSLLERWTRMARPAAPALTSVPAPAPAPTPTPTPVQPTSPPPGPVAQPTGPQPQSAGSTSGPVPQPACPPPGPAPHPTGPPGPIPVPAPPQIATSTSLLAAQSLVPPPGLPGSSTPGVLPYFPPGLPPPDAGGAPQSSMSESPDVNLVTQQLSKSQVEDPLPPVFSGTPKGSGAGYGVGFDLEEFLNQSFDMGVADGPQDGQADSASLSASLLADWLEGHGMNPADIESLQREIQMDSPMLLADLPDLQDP

Sequence of UniProt Q9Y2H1 (Q9Y2H1 whole entry, looked up): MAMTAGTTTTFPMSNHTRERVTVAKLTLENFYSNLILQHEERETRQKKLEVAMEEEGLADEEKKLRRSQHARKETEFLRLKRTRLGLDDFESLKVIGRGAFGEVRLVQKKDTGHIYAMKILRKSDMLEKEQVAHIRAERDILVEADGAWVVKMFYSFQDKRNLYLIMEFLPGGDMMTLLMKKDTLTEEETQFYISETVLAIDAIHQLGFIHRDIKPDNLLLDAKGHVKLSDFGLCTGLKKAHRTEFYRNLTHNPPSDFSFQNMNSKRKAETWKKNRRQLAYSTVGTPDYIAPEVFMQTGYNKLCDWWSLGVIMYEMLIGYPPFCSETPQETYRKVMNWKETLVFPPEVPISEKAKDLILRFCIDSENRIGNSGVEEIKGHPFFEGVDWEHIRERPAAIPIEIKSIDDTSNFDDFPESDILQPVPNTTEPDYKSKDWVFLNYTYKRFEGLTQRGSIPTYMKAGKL
Sequence of HIPK3 (Q9H422 whole entry, looked up): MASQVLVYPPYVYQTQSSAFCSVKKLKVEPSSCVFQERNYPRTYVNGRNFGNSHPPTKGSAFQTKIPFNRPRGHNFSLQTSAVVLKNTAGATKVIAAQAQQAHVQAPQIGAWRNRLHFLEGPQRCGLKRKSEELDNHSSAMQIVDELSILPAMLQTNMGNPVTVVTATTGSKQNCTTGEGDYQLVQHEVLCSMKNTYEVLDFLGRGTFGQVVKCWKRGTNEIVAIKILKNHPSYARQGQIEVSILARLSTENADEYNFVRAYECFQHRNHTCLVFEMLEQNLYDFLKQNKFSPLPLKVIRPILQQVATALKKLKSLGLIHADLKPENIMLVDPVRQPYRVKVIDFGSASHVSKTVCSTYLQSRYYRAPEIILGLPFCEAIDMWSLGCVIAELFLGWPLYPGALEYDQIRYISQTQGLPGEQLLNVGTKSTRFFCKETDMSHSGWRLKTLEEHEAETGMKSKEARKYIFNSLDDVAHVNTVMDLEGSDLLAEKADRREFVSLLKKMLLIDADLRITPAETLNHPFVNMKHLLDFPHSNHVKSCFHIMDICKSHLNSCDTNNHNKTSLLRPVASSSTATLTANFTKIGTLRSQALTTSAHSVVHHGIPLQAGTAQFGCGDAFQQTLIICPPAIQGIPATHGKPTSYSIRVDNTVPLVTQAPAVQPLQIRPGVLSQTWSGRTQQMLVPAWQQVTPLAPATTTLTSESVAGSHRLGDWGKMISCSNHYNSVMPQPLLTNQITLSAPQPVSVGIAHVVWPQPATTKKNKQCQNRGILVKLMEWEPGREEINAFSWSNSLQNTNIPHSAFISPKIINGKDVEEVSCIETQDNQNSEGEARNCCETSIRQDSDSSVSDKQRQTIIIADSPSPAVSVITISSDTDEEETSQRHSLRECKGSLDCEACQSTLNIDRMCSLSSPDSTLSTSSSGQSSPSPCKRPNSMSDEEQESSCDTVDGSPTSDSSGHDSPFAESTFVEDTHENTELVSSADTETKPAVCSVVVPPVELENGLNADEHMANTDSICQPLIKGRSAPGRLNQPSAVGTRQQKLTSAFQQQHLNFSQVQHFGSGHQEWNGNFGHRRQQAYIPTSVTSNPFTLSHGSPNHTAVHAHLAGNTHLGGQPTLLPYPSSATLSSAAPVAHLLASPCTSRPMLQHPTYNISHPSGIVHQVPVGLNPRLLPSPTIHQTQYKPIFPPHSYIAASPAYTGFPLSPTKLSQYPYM
Sequence of UniProt P80192 (P80192 whole entry, looked up): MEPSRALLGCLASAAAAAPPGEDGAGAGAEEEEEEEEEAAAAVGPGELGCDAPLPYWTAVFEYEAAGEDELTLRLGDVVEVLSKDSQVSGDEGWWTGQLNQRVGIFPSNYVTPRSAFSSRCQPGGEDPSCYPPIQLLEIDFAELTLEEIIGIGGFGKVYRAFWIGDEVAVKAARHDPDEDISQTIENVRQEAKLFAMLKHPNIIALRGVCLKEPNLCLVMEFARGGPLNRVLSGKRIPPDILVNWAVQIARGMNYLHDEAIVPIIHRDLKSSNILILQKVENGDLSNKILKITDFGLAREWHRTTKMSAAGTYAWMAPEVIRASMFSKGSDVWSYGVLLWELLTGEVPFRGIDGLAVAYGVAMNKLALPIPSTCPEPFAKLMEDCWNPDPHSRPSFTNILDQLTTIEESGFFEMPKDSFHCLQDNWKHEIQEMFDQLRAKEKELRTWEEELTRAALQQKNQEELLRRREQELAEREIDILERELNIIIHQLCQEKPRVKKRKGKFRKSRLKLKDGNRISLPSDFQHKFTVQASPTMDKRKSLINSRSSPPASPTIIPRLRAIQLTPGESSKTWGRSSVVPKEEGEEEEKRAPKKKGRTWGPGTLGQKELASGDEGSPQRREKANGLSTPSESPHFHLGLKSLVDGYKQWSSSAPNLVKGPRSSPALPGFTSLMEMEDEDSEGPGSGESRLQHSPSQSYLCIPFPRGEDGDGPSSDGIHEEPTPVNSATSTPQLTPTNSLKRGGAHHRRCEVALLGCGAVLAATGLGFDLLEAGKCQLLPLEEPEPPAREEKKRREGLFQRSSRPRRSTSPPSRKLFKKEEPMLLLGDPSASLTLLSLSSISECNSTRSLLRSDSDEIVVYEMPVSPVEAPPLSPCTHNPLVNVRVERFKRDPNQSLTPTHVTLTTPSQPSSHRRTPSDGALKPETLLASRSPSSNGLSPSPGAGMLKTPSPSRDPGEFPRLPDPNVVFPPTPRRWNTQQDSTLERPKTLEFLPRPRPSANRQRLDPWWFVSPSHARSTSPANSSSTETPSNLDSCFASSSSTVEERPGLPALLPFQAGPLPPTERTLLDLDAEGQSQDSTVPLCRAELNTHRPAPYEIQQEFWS
Sequence of UniProt Q14289 (Q14289 whole entry, looked up): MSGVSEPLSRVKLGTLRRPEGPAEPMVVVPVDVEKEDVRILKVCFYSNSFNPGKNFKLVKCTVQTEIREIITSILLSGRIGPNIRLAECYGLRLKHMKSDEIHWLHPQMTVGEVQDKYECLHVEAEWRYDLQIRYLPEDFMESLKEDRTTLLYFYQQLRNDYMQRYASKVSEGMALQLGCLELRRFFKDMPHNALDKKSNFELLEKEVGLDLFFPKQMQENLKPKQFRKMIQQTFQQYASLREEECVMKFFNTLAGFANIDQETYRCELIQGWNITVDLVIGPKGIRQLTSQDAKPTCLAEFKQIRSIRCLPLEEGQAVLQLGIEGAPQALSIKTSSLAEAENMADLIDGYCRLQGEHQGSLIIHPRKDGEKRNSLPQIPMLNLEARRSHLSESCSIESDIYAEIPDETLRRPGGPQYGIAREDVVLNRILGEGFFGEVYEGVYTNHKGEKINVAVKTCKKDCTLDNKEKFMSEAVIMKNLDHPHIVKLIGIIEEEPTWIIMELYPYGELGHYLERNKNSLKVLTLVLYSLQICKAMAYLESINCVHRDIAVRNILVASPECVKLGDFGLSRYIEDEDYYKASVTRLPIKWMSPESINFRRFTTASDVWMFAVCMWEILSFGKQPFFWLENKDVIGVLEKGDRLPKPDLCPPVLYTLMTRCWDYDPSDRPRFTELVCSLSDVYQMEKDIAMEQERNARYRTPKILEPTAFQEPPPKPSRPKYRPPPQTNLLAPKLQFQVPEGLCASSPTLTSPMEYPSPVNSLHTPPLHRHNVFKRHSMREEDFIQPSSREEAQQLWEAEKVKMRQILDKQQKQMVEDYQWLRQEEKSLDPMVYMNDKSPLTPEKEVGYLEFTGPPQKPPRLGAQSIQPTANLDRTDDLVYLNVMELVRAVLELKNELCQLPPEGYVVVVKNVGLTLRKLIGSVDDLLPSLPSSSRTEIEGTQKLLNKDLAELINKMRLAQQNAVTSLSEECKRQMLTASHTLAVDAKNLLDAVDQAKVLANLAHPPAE

## CCc1cnn2c(NCc3ccc[n+]([O-])c3)cc(N3CCCC[C@H]3CCO)nc12 [dinaciclib]
UniProt Q9Y2H1
  pIC50: < 4.52
UniProt O15530
  pIC50: < 4.52
HIPK3
  pIC50: < 4.52
ILK
  pIC50: < 4.52
CAMK4
  pIC50: < 4.52
UniProt Q14289
  pIC50: < 4.52
MARK2
  pIC50: < 4.52
TGFBR1
  pIC50: < 4.52
UniProt P80192
  pIC50: < 4.52
ICK
  pIC50: 6.39
UniProt Q13164
  pIC50: < 4.52
